Experimental data: patent US7384935B2 (Thallion Pharmaceuticals, Inc., priority 2005, dated 2008)
Like-named read-outs stand apart in the source and are kept apart here.

Experiments:
[1] = tested on: HT-29, SF268, MDA-MB-231 and PC-3; assay: In vitro cytotoxic activity, four cell lines together (average / overall statement); settings: for GI50: read-out: In vitro Cytotoxic Activities GI50, Average; for exhibited in vitro anticancer activity at 30 μM: four cell lines
[2] = tested on: PC-3 (prostate adenocarcinoma); assay: In vitro cytotoxic activity (GI50), propidium iodide dye indicator; type: cell-based; settings: PC-3, 96 hrs incubation; read-out: In vitro Cytotoxic Activities GI50, PC-3
Text: (§1) Procedure used for the tests is described below.

[3] = tested on: SF268 (CNS); assay: as above; type: cell-based; settings: SF-268, 96 hrs incubation, read-out: In vitro Cytotoxic Activities GI50, SF-268
Text: as §1

[4] = tested on: MDA-MB-231 (mammary gland adenocarcinoma); assay: as above; type: cell-based; settings: MDA-MB-231, 96 hrs incubation, read-out: In vitro Cytotoxic Activities GI50, MDA-MB-231
Text: as §1

[5] = tested on: HT-29 (colorectal carcinoma); assay: as above; settings: read-out: In vitro Cytotoxic Activities GI50, HT-29
[6] = in vivo; settings: Sprague-Dawley, rat, plasma, iv, 30 mg/kg
Protocol: Each blood sample (approximately 0.5 mL) was collected into microtainer tubes containing anticoagulant K2EDTA. The samples were centrifuged at a temperature ranging from about 2 to about 8° C. for 10 minutes at 1500 g (RCF). A volume of 25 μL of 4% w/v L-aqueous acid was added to a volume of 225 μL of rat plasma in a clean tube, and the samples were mixed by inversion.
LOQ and LOD values were determined according to the concentration range used in the experiment, using a MDS Sciex API 2000™ Q-Trap™. Mean concentration values and standard deviation (SD) were calculated at each timepoints of the pharmacokinetic study (n=3 animals/timepoint).
Blood was collected, centrifuged and analyzed as above.

[7] = Conversion to Compound 1 by rat liver homogenate; type: in vitro ADME, Sprague Dawley rats; settings: 37° C.
Protocol: The aim of this test was to determine if the phosphate prodrugs were cleaved by phosphatases present in the liver.
Rat liver (3 g from Sprague Dawley rats) was weighed into a centrifuge tube and 12 mL of Buffer A was added, representing a 1:4 tissue/buffer ratio, which were homogenized for at least 30 seconds at ambient temperature.
Stock solutions of test article, control and internal standards were prepared as shown in Table 8 by diluting the compound in the appropriate solvent.
Liver homogenate (180 μL) was transferred into Eppendorf™ tubes (polypropylene, size 1.8 mL). Tubes for Blank, 0 min, 30 min, 1 h, 2 h, 3 h, 4 h and 5 h for each concentration of compound to be tested. Blank tubes were prepared by adding 200 μL of homogenate per tube.
Immediately after vortexing, the 0 min samples (for calibration) were extracted with extraction Methods A and B (see below). The remaining tubes were incubated at 37° C. for the prescribed length of time.
The mixture was allowed to stand for 10 minutes at room temperature. It was then centrifuged at 13000 RPM for 5 minutes at 4° C. The supernatant was tested by LC-MS/MS (Method B).
A volume of 800 μL of acetonitrile containing IS 200 ng/mL (Stock F) was added to the homogenate and the mixture vortexed for 30 sec. The mixture was allowed to stand at room temperature for 10 minutes, and was centrifuged at 13000 RPM for 5 minutes at 4° C. The supernatant was tested by LC-MS/MS (Method A).
Both LC methods were accomplished using the same HPLC system (Agilent Technologies 1100 with Binary pump and autosampler, and an Agilent 1100 Autosampler needle wash to avoid contamination of the needle. Both MS/MS method were done using a MDS Sciex™ MS system under positive electrospray ionization.
Multiple Reaction Monitoring (MRM) was used as scan type in Method A MS/MS.
LC Method B (long method) was done using 20 μL of test solution on a Waters Symmetry™ C-18, 3.5μ (3.0×100 mm id) and a divert pump flow rate of 1.0 ml/min using the conditions described in Table 10.
Enhanced Product Ion (EPI) was used as scan type in Method B MS/MS.

[8] = physchem
[9] = average of HT-29, SF-268, PC-3, MDA-MB-231

| SMILES | GI50 [1, 9] [µM] | GI50 [2] [µM] | GI50 [3] [µM] | GI50 [4] [µM] | GI50 ([5]; HT-29, 96 hrs incubation) [µM] | exhibited in vitro anticancer activity at 30 μM [1] | GI50 [1] [µM] | GI50 ([3]; Homo sapiens) [µM] | GI50 ([4]; Homo sapiens) [µM] | GI50 ([5]; Homo sapiens, HT-29, 96 h) [µM] | solubility [8] [mg/mL] | also measured |
| --- | --- | --- | --- | --- | --- | --- | --- | --- | --- | --- | --- | --- |
| CC(=O)Oc1cc(OC(C)=O)c2c(c1)N(C/C=C(\C)CC/C=C(\C)CCC=C(C)C)C(=O)c1cccc(OC(C)=O)c1N2 [A, reference compound] | 3.82 | 1.2 | 1.95 | 2.79 | 9.33 |  |  |  |  |  |  |  |
| CC(=O)Oc1cccc2c1Nc1c(OC(C)=O)cc(O)cc1N(C/C=C(\C)CC/C=C(\C)CCC=C(C)C)C2=O [B, reference compound] | 4.6 | 1.44 | 1.88 | 2.48 | 12.6 |  |  |  |  |  |  |  |
| CC(=O)Oc1cc(O)c2c(c1)N(C/C=C(\C)CC/C=C(\C)CCC=C(C)C)C(=O)c1cccc(OC(C)=O)c1N2 [C, reference compound] | 8.72 | 5.35 | 5.79 | 7.72 | 16 |  |  |  |  |  |  |  |
| CC(C)=CCC/C(C)=C/CC/C(C)=C/CN1C(=O)c2cccc(O)c2Nc2c(O)cc(O)cc21 [Compound 1, 10-farnesyl4,6,8-trihydroxy-5,10-dihydrodibenzo[b,e][1,4]diazepin-11-one] |  |  |  |  |  |  |  |  |  |  |  | AUC [6]: 70200 ng·h/mL |
| CC(C)=CCC/C(C)=C/CC/C(C)=C/CN1C(=O)c2cccc(OP(=O)(OCc3ccccc3)OCc3ccccc3)c2Nc2c(OP(=O)(OCc3ccccc3)OCc3ccccc3)cc(OP(=O)(OCc3ccccc3)OCc3ccccc3)cc21 [Compound 2, 10-farnesyl-4,6,8-tri(bisbenzyloxyphosphoryloxy)-5,10-dihydro-dibenzo[b,e][1,4]diazepin-11-one] |  | > 30 |  |  |  | None | > 30 | > 30 | > 30 | > 30 |  |  |
| CC(C)=CCCC(C)=CCCC(C)=CCN1C(=O)c2cccc(OP(=O)(O)OCc3ccccc3)c2Nc2c(OP(=O)(O)OCc3ccccc3)cc(OP(=O)(O)OCc3ccccc3)cc21.N.N.N [Compound 9 (NH4^+)3, 10-farnesyl-4,6,8-tri(benzyloxyhydroxyphosphoryloxy)-5,10-dihydro-dibenzo[b,e][1,4]diazepin-11-one triammonium salt] |  | > 30 |  |  |  | None | > 30 | > 30 | > 30 | > 30 | > 40 | Concentration of Compound 9 (remaining prodrug) vs Time of Incubation ([7]; initial conc. 5 μg/mL in homogenate, 0 min): 1840 ng/mL; Concentration of Compound 9 (remaining prodrug) vs Time of Incubation ([7]; initial conc. 5 μg/mL in homogenate, 0.5 h): 2040 ng/mL; Concentration of Compound 9 (remaining prodrug) vs Time of Incubation ([7]; initial conc. 5 μg/mL in homogenate, 1 h): 2570 ng/mL; Concentration of Compound 9 (remaining prodrug) vs Time of Incubation ([7]; initial conc. 5 μg/mL in homogenate, 2 h): 856 ng/mL; Concentration of Compound 9 (remaining prodrug) vs Time of Incubation ([7]; initial conc. 5 μg/mL in homogenate, 3 h): 544 ng/mL; Concentration of Compound 9 (remaining prodrug) vs Time of Incubation ([7]; initial conc. 5 μg/mL in homogenate, 4 h): <LOD; Concentration of Compound 9 (remaining prodrug) vs Time of Incubation ([7]; initial conc. 5 μg/mL in homogenate, 5 h): <LOD; Concentration of Compound 9 (remaining prodrug) vs Time of Incubation ([7]; initial conc. 20 μg/mL in homogenate, 0 min): 13300 ng/mL; Concentration of Compound 9 (remaining prodrug) vs Time of Incubation ([7]; initial conc. 20 μg/mL in homogenate, 0.5 h): 14600 ng/mL; Concentration of Compound 9 (remaining prodrug) vs Time of Incubation ([7]; initial conc. 20 μg/mL in homogenate, 1 h): 9030 ng/mL; Concentration of Compound 9 (remaining prodrug) vs Time of Incubation ([7]; initial conc. 20 μg/mL in homogenate, 2 h): 2970 ng/mL; Concentration of Compound 9 (remaining prodrug) vs Time of Incubation ([7]; initial conc. 20 μg/mL in homogenate, 3 h): 1530 ng/mL; Concentration of Compound 9 (remaining prodrug) vs Time of Incubation ([7]; initial conc. 20 μg/mL in homogenate, 4 h): 1080 ng/mL; Concentration of Compound 9 (remaining prodrug) vs Time of Incubation ([7]; initial conc. 20 μg/mL in homogenate, 5 h): 948 ng/mL |
| CC(C)=CCC/C(C)=C/CC/C(C)=C/CN1C(=O)c2cccc(OP(=O)(O)O)c2Nc2c(OP(=O)(O)O)cc(OP(=O)(O)O)cc21 [Compound 16] |  | > 30 |  |  |  | None | > 30 | > 30 | > 30 | > 30 | > 40 |  |
| CC(C)=CCC/C(C)=C/CC/C(C)=C/CN1C(=O)c2cccc(O)c2Nc2c(OP(=O)(O)O)cc(O)cc21.N.N [Compound 21 (NH4^+)2, 4,8-dihydroxy-10-farnesyl-6-phosphonooxy-5,10-dihydro-dibenzo[b,e][1,4]diazepin-11-one diammonium salt] |  | > 30 |  |  |  | None | > 30 | > 30 | > 30 | > 30 | 5 |  |
| CC(=O)Oc1cc(OC(C)=O)c2c(c1)N(C/C=C(\C)CC/C=C(\C)CCC=C(C)C)C(=O)c1cccc(O)c1N2 [D, reference compound] | 4.48 | 1.35 | 2.02 | 1.55 | 13 |  |  |  |  |  |  |  |
